{"source": "patent US12492181B2", "about": "“Gem-disubstituted piperidine melanocortin subtype-2 receptor (MC2R) antagonists and uses thereof” (Crinetics Pharmaceuticals, Inc., priority 2019, dated 2025)", "biological_target": "T1, hMC2 receptor (crude hMC2R membranes from CRE-bla-CHO-K1 cells stably expressing hMC2 receptor and hMRAP accessory protein) (Homo sapiens, UniProt Q01718)", "T1 construct": "crude membrane fractions", "T1 sequence (Q01718 whole entry)": "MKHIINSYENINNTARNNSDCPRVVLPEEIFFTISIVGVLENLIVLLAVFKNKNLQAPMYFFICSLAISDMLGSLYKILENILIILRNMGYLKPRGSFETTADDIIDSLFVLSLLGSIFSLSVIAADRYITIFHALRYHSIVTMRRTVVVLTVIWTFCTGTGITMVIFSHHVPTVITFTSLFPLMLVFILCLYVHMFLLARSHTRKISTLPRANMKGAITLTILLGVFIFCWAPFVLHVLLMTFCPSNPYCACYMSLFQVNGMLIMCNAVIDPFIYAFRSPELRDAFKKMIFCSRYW", "T1 sequence (Q8TCY5 whole entry partner)": "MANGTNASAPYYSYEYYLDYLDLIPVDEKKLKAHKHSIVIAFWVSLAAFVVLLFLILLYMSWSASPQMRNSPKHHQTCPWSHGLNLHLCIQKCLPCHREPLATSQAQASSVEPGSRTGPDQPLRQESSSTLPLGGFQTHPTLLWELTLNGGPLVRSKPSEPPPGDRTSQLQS", "test": "hMC2 membrane binding assay ([125I]ACTH (1-39) Tyr23, SPA)", "details": "displacement of 0.2 nM [125I]ACTH (1-39) Tyr23 from hMC2R membranes, 1.5 hours at room temperature; read-out: MC2R binding potency", "in_short": "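Crude membranes from CRE-bla-CHO-K1 cells stably co-expressing hMC2R and hMRAP, premixed with WGA PVT SPA beads in pH 7.4 HEPES buffer (5 mM MgCl2, 1 mM CaCl2, 0.20% BSA, protease inhibitors). Compounds compete with [125I]ACTH(1-39) Tyr23, read by scintillation. Ki from non-linear regression.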"}
{"smiles": "CCOc1ncccc1-c1ccc(C2(C(=O)NCCNC)CCN(c3ccc(C(F)(F)F)cc3C#N)CC2)cc1", "note": "[Compound 1-7, 1-[2-cyano-4-(trifluoromethyl)phenyl]-4-[4-(2-ethoxypyridin-3-yl)phenyl]-N-[2-(methylamino)ethyl]piperidine-4-carboxamide]", "values": [{"measurement": "Ki", "value": "< 10", "unit": "nM"}]}
{"smiles": "COc1ccccc1-c1ncc(C2(C(=O)NCCCN(C)C)CCN(c3ccc(C(F)(F)F)cc3C#N)CC2)cc1F", "note": "[Compound 1-199, 1-[2-cyano-4-(trifluoromethyl)phenyl]-N-[3-(dimethylamino)propyl]-4-[5-fluoro-6-(2-methoxyphenyl)pyridin-3-yl]piperidine-4-carboxamide]", "values": [{"measurement": "Ki", "value": "< 10", "unit": "nM"}]}
{"smiles": "COc1ccccc1-c1ccc(C2(C(=O)N[C@@H]3CNC[C@H]3F)CCN(c3ccc(C(F)(F)F)cc3C#N)CC2)cn1", "note": "[Compound 1-238, 1-[2-cyano-4-(trifluoromethyl)phenyl]-N-[(3R,4R)-4-fluoropyrrolidin-3-yl]-4-[6-(2-methoxyphenyl)pyridin-3-yl]piperidine-4-carboxamide]", "values": [{"measurement": "Ki", "value": "< 10", "unit": "nM"}]}
{"smiles": "CN1CC[C@H](NC(=O)C2(c3ccc(-c4ccccc4C4CC4)nc3)CCN(c3ccc(C(F)(F)F)cc3C#N)CC2)C1", "note": "[Compound 1-121, 1-[2-cyano-4-(trifluoromethyl)phenyl]-4-[6-(2-cyclopropylphenyl)pyridin-3-yl]-N-[(3S)-1-methylpyrrolidin-3-yl]piperidine-4-carboxamide]", "values": [{"measurement": "Ki", "value": "< 10", "unit": "nM"}]}
{"smiles": "CNCCNC(=O)C1(c2cnc(-c3cccn3C)c(F)c2)CCN(c2ccc(C(F)(F)F)cc2Cl)CC1", "note": "[Compound 1-310, 1-[2-chloro-4-(trifluoromethyl)phenyl]-4-[5-fluoro-6-(1-methyl-1H-pyrrol-2-yl)pyridin-3-yl]-N-[2-(methylamino)ethyl]piperidine-4-carboxamide]", "values": [{"measurement": "Ki", "value": "< 10", "unit": "nM"}]}
{"smiles": "CCOc1ncccc1-c1ccc(C2(C(=O)NC3CN(C)C3)CCN(c3ccc(C(F)(F)F)cc3C#N)CC2)cn1", "note": "[Compound 1-19, 1-[2-cyano-4-(trifluoromethyl)phenyl]-4-{2′-ethoxy-[2,3′-bipyridin]-5-yl}-N-(1-methylazetidin-3-yl)piperidine-4-carboxamide]", "values": [{"measurement": "Ki", "value": "< 10", "unit": "nM"}]}
{"smiles": "COCc1ccccc1-c1ccc(C2(C(=O)N[C@@H]3CCN(C)C3)CCN(c3ccc(C(F)(F)F)cc3C#N)CC2)cn1", "note": "[Compound 1-79, 1-[2-cyano-4-(trifluoromethyl)phenyl]-4-{6-[2-(methoxymethyl)phenyl]pyridin-3-yl}-N-[(3R)-1-methylpyrrolidin-3-yl]piperidine-4-carboxamide]", "values": [{"measurement": "Ki", "value": "< 10", "unit": "nM"}]}
{"smiles": "COc1ccccc1-c1ccc(C2(C(=O)NC[C@@H]3COCCN3C)CCN(c3ccc(C(F)(F)F)cc3C#N)CC2)cn1", "note": "[Compound 1-329, 1-[2-cyano-4-(trifluoromethyl)phenyl]-4-[6-(2-methoxyphenyl)pyridin-3-yl]-N-{[(3R)-4-methylmorpholin-3-yl]methyl}piperidine-4-carboxamide]", "values": [{"measurement": "Ki", "value": "< 10", "unit": "nM"}]}
{"smiles": "COc1ccccc1-c1ncc(C2(C(=O)N[C@H]3CCN(C)C3)CCN(c3ccc(C(F)(F)F)cc3C#N)CC2)cc1F", "note": "[Compound 1-127, 1-[2-cyano-4-(trifluoromethyl)phenyl]-4-[5-fluoro-6-(2-methoxyphenyl)pyridin-3-yl]-N-[(3S)-1-methylpyrrolidin-3-yl]piperidine-4-carboxamide]", "values": [{"measurement": "Ki", "value": "< 10", "unit": "nM"}]}
{"smiles": "COc1ccccc1-c1ccc(C2(C(=O)NCCN3CCC3)CCN(c3ccc(C(F)(F)F)cc3C#N)CC2)cn1", "note": "[Compound 1-245, N-[2-(azetidin-1-yl)ethyl]-1-[2-cyano-4-(trifluoromethyl)phenyl]-4-[6-(2-methoxyphenyl)pyridin-3-yl]piperidine-4-carboxamide]", "values": [{"measurement": "Ki", "value": "< 10", "unit": "nM"}]}
{"smiles": "CNC[C@H](C)NC(=O)C1(c2ccc(-c3cccn3C)nc2)CCN(c2ccc(C(F)(F)F)cc2C#N)CC1", "note": "[Compound 1-316, 1-[2-cyano-4-(trifluoromethyl)phenyl]-4-[6-(1-methyl-1H-pyrrol-2-yl)pyridin-3-yl]-N-[(2S)-1-(methylamino)propan-2-yl]piperidine-4-carboxamide]", "values": [{"measurement": "Ki", "value": "< 10", "unit": "nM"}]}
{"smiles": "CN1C[C@H](NC(=O)C2(c3ccc(-c4cccn4C)nc3)CCN(c3ccc(C(F)(F)F)cc3C#N)CC2)[C@@H](O)C1", "note": "[Compound 1-270, 1-[2-cyano-4-(trifluoromethyl)phenyl]-N-[(3S,4S)-4-hydroxy-1-methylpyrrolidin-3-yl]-4-[6-(1-methyl-1H-pyrrol-2-yl)pyridin-3-yl]piperidine-4-carboxamide]", "values": [{"measurement": "Ki", "value": "< 10", "unit": "nM"}]}
{"smiles": "CCOc1ncccc1-c1ccc(C2(C(=O)NC[C@H](CO)NC)CCN(c3ccc(C(F)(F)F)cc3C#N)CC2)cn1", "note": "[Compound 1-44, 1-[2-cyano-4-(trifluoromethyl)phenyl]-4-{2′-ethoxy-[2,3′-bipyridin]-5-yl}-N-[(2R)-3-hydroxy-2-(methylamino)propyl]piperidine-4-carboxamide]", "values": [{"measurement": "Ki", "value": "< 10", "unit": "nM"}]}
{"smiles": "CO[C@@H]1CN(C)C[C@H]1NC(=O)C1(c2ccc(-c3cccn3C)nc2)CCN(c2ccc(C(F)(F)F)cc2C#N)CC1", "note": "(racemic) [Compound 1-268, rac-1-[2-cyano-4-(trifluoromethyl)phenyl]-N-[(3R,4R)-4-methoxy-1-methylpyrrolidin-3-yl]-4-[6-(1-methyl-1H-pyrrol-2-yl)pyridin-3-yl]piperidine-4-carboxamide]", "values": [{"measurement": "Ki", "value": "< 10", "unit": "nM"}]}
{"smiles": "CCOc1ncccc1-c1ccc(C2(C(=O)N[C@@H](C)CN(C)C)CCN(c3ccc(C(F)(F)F)cc3C#N)CC2)cn1", "note": "[Compound 1-313, 1-[2-cyano-4-(trifluoromethyl)phenyl]-N-[(2S)-1-(dimethylamino)propan-2-yl]-4-{2′-ethoxy-[2,3′-bipyridin]-5-yl}piperidine-4-carboxamide]", "values": [{"measurement": "Ki", "value": "< 10", "unit": "nM"}]}
{"smiles": "CCOc1ncccc1-c1ccc(C2(NC(=O)[C@H]3CCN(C)C3)CCN(c3ccc(C(F)(F)F)cc3C#N)CC2)cn1", "note": "[Compound 2-9, (3S)—N-{1-[2-cyano-4-(trifluoromethyl)phenyl]-4-{2′-ethoxy-[2,3′-bipyridin]-5-yl}piperidin-4-yl}-1-methylpyrrolidine-3-carboxamide]", "values": [{"measurement": "Ki", "value": "< 10", "unit": "nM"}]}
{"smiles": "COc1ccccc1-c1ncc(C2(C(=O)N[C@H]3CCN(C)C3)CCN(c3ccc(C(F)(F)F)nc3C#N)CC2)cc1F", "note": "[Compound 1-128, 1-[2-cyano-6-(trifluoromethyl)pyridin-3-yl]-4-[5-fluoro-6-(2-methoxyphenyl)pyridin-3-yl]-N-[(3S)-1-methylpyrrolidin-3-yl]piperidine-4-carboxamide]", "values": [{"measurement": "Ki", "value": "< 10", "unit": "nM"}]}
{"smiles": "COc1ccccc1-c1ccc(C2(C(=O)NC3CN(C)C3)CCN(c3ccc(Cl)cc3C#N)CC2)cn1", "note": "[Compound 1-92, 1-(4-chloro-2-cyanophenyl)-4-[6-(2-methoxyphenyl)pyridin-3-yl]-N-(1-methylazetidin-3-yl)piperidine-4-carboxamide]", "values": [{"measurement": "Ki", "value": "< 10", "unit": "nM"}]}
{"smiles": "CCOc1ccccc1-c1ccc(C2(NC(=O)CCN(C)C)CCN(c3ccc(C(F)(F)F)cc3C#N)CC2)cn1", "note": "[Compound 2-36, N-{1-[2-cyano-4-(trifluoromethyl)phenyl]-4-[6-(2-ethoxyphenyl)pyridin-3-yl]piperidin-4-yl}-3-(dimethylamino)propanamide]", "values": [{"measurement": "Ki", "value": "< 10", "unit": "nM"}]}
{"smiles": "COc1ccccc1-c1ccc(C2(NC(=O)O[C@@H]3CCN(C)C3)CCN(c3ccc(C(F)(F)F)cc3C#N)CC2)cn1", "note": "[Compound 2-54, (3R)-1-methylpyrrolidin-3-yl N-{1-[2-cyano-4-(trifluoromethyl)phenyl]-4-[6-(2-methoxyphenyl)pyridin-3-yl]piperidin-4-yl}carbamate]", "values": [{"measurement": "Ki", "value": "< 10", "unit": "nM"}]}
{"smiles": "CN1CC[C@@H](NC(=O)C2(c3ccc(-c4cc(F)cc(F)c4)nc3)CCN(c3ccc(C(F)(F)F)cc3C#N)CC2)C1", "note": "[Compound 1-65, 1-[2-cyano-4-(trifluoromethyl)phenyl]-4-[6-(3,5-difluorophenyl)pyridin-3-yl]-N-[(3R)-1-methylpyrrolidin-3-yl]piperidine-4-carboxamide]", "values": [{"measurement": "Ki", "value": "10 to 100", "unit": "nM"}]}
{"smiles": "CCOc1ncccc1-c1ncc(C2(C(=O)N[C@H]3CCN(C)C3)CCN(c3ccc(C(F)(F)F)cc3Cl)CC2)cc1F", "note": "[Compound 1-203, 1-[2-chloro-4-(trifluoromethyl)phenyl]-4-{2′-ethoxy-3-fluoro-[2,3′-bipyridin]-5-yl}-N-[(3S)-1-methylpyrrolidin-3-yl]piperidine-4-carboxamide]", "values": [{"measurement": "Ki", "value": "< 10", "unit": "nM"}]}
{"smiles": "CN1CC[C@@H](NC(=O)C2(c3ccc(-c4ccccc4OC(F)(F)F)nc3)CCN(c3ccc(C(F)(F)F)cc3C#N)CC2)C1", "note": "[Compound 1-71, 1-[2-cyano-4-(trifluoromethyl)phenyl]-N-[(3R)-1-methylpyrrolidin-3-yl]-4-{6-[2-(trifluoromethoxy)phenyl]pyridin-3-yl}piperidine-4-carboxamide]", "values": [{"measurement": "Ki", "value": "< 10", "unit": "nM"}]}
{"smiles": "CNCCNC(=O)C1(c2ccc(-c3cccnc3OC)nc2)CCN(c2ccc(C(F)(F)F)cc2Cl)CC1", "note": "[Compound 1-274, 1-[2-chloro-4-(trifluoromethyl)phenyl]-4-{2′-methoxy-[2,3′-bipyridin]-5-yl}-N-[2-(methylamino)ethyl]piperidine-4-carboxamide]", "values": [{"measurement": "Ki", "value": "< 10", "unit": "nM"}]}
{"smiles": "CNCCNC(=O)C1(c2cnc(-c3cccn3C)c(F)c2)CCN(c2ccc(C(F)(F)F)cc2F)CC1", "note": "[Compound 1-305, 1-[2-fluoro-4-(trifluoromethyl)phenyl]-4-[5-fluoro-6-(1-methyl-1H-pyrrol-2-yl)pyridin-3-yl]-N-[2-(methylamino)ethyl]piperidine-4-carboxamide]", "values": [{"measurement": "Ki", "value": "< 10", "unit": "nM"}]}
{"smiles": "CCOc1ncccc1-c1ccc(C2(C(=O)N[C@H]3CCN(C)C3)CCN(c3ccc(C(F)(F)F)cc3)CC2)cn1", "note": "[Compound 1-33, 4-{2′-ethoxy-[2,3′-bipyridin]-5-yl}-N-[(3S)-1-methylpyrrolidin-3-yl]-1-[4-(trifluoromethyl)phenyl]piperidine-4-carboxamide]", "values": [{"measurement": "Ki", "value": "< 10", "unit": "nM"}]}
{"smiles": "CN1CC[C@H](NC(=O)C2(c3cnc(-c4cccn4C)c(F)c3)CCN(c3ccc(Cl)cc3C#N)CC2)C1", "note": "[Compound 1-163, 1-(4-chloro-2-cyanophenyl)-4-[5-fluoro-6-(1-methyl-1H-pyrrol-2-yl)pyridin-3-yl]-N-[(3S)-1-methylpyrrolidin-3-yl]piperidine-4-carboxamide]", "values": [{"measurement": "Ki", "value": "< 10", "unit": "nM"}]}
